The values below come from patent US20230357162A1, “COMPOUNDS, COMPOSITIONS AND METHODS” (Denali Therapeutics Inc., priority 2020, published 2023).

Structures can show the parent of a compound that is named as a salt.

In the assay the test system is IL-1β secretion, THP-1 cells. Description: IL-1β secretion assay in PMA-differentiated THP-1 cells stimulated with LPS and nigericin (ELISA readout). Format: cell-based. The settings on record: Homo sapiens, THP-1, inhibition of IL-1β secretion, 25 ng/mL LPS then nigericin. The procedure, abridged:
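THP-1 cells differentiated with 5 ng/mL PMA for 40 h, primed in serum-free medium with 25 ng/mL LPS for 2 h, then compound (0.5% DMSO) for 1 h before nigericin for 2 h at 37°C. Supernatant IL-1β quantified by ELISA; normalized to high (LPS + 5 µM nigericin) and low (LPS only) controls.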

Consider `O=C(Cn1nc(C(F)F)c2cc(Br)ccc2c1=O)Nc1ncc(F)cn1` [Example 103, 2-[6-bromo-4-(difluoromethyl)-1-oxophthalazin-2-yl]-N-(5-fluoropyrimidin-2-yl)acetamide], for which the IC50 by setting is: (class column of Table 3) under 10 µM; (numeric column of Table 3) 0.265 µM.
With `O=C(Cn1nc(C(F)F)c2ccc(Br)cc2c1=O)Nc1ncc(F)cn1` [Example 104, 2-[7-bromo-4-(difluoromethyl)-1-oxophthalazin-2-yl]-N-(5-fluoropyrimidin-2-yl)acetamide], the IC50 was under 10 µM (class column of Table 3) and 6.99 µM (numeric column of Table 3).
In the same order, the values of `O=C(Cn1nc(C(F)F)c2nc(C(F)(F)F)ccc2c1=O)Nc1ncc(F)cn1` [Example 105, 2-[8-(difluoromethyl)-5-oxo-2-(trifluoromethyl)pyrido[2,3-d]pyridazin-6-yl]-N-(5-fluoropyrimidin-2-yl)acetamide] are under 10 µM and 0.614 µM.
In the same order, the values of `CC(C)c1nn(CC(=O)N[C@@H]2CCCN(C3CCC3)C2)c(=O)c2ccc(Br)cc12` [Example 106, 2-(6-bromo-1-oxo-4-propan-2-ylphthalazin-2-yl)-N-[(3R)-1-cyclobutylpiperidin-3-yl]acetamide] are under 10 µM and 0.058 µM.
In the same order, the values of `CC(C)c1nn(CC(=O)NCC2CCCN2C(=O)OC(C)(C)C)c(=O)c2ccc(Br)cc12` (stereo not drawn) [Example 107, tert-butyl 2-[[[2-(6-bromo-4-isopropyl-1-oxo-phthalazin-2-yl)acetyl]amino]methyl]pyrrolidine-1-carboxylate] are over 15 µM and over 50 µM.
Take `CC(C)c1nn(CC(=O)NCC2CCCN2)c(=O)c2ccc(Br)cc12` (stereo not drawn) [Example 108, 2-(6-bromo-1-oxo-4-propan-2-ylphthalazin-2-yl)-N-(pyrrolidin-2-ylmethyl)acetamide HCl salt]: the IC50 is under 10 µM (class column of Table 3) and 8.23 µM (numeric column of Table 3).
The like results for `CCN1CCCC1CNC(=O)Cn1nc(C(C)C)c2cc(Br)ccc2c1=O` (stereo not drawn) [Example 109, 2-(6-bromo-1-oxo-4-propan-2-ylphthalazin-2-yl)-N-[(1-ethylpyrrolidin-2-yl)methyl]acetamide] were, in that order, under 10 µM and 5.81 µM.
The like results for `CC(C)c1nn(CC(=O)Nc2nccc(C(F)(F)F)n2)c(=O)c2ccc(Br)cc12` [Example 110, 2-(6-bromo-1-oxo-4-propan-2-ylphthalazin-2-yl)-N-[4-(trifluoromethyl)pyrimidin-2-yl]acetamide] were, in that order, under 10 µM and 1.35 µM.
The like results for `CC(C)c1nn(CC(=O)Nc2ccc(C3CC3)cn2)c(=O)c2ccc(Br)cc12` [Example 111, 2-(6-bromo-1-oxo-4-propan-2-ylphthalazin-2-yl)-N-(5-cyclopropylpyridin-2-yl)acetamide] were, in that order, under 10 µM and 0.796 µM.
`CC(C)c1nn(CC(=O)Nc2cnc(Cl)c(F)c2)c(=O)c2ccc(Br)cc12` [Example 112, 2-(6-bromo-1-oxo-4-propan-2-ylphthalazin-2-yl)-N-(6-chloro-5-fluoropyridin-3-yl)acetamide] came in with an IC50 (class column of Table 3) of under 10 µM and an IC50 (numeric column of Table 3) of 1.12 µM.
The like results for `CC(C)c1nn(CC(=O)Nc2ncc(F)cn2)c(=O)c2ccc(Br)cc12` [Example 113, 2-(6-bromo-1-oxo-4-propan-2-ylphthalazin-2-yl)-N-(5-fluoropyrimidin-2-yl)acetamide] were, in that order, under 10 µM and 0.035 µM.
`CC(C)c1nn(CC(=O)Nc2ncc(F)cc2C#N)c(=O)c2ccc(Br)cc12` [Example 114, 2-(6-bromo-1-oxo-4-propan-2-ylphthalazin-2-yl)-N-(3-cyano-5-fluoropyridin-2-yl)acetamide]: the IC50 is, setting by setting: (class column of Table 3) under 10 µM; (numeric column of Table 3) 1.77 µM.
With `CC(C)c1nn(CC(=O)Nc2ncc(F)cc2Cl)c(=O)c2ccc(Br)cc12` [Example 115, 2-(6-bromo-1-oxo-4-propan-2-ylphthalazin-2-yl)-N-(3-chloro-5-fluoropyridin-2-yl)acetamide], the IC50 is under 10 µM (class column of Table 3) and 1.53 µM (numeric column of Table 3).
The like results for `CC(C)c1nn(CC(=O)Nc2cc(C(F)(F)F)nn2C)c(=O)c2ccc(Br)cc12` [Example 116, 2-(6-bromo-1-oxo-4-propan-2-ylphthalazin-2-yl)-N-[2-methyl-5-(trifluoromethyl)pyrazol-3-yl]acetamide] were, in that order, under 10 µM and 4.6 µM.
In the same order, the values of `CC(C)c1nn(CC(=O)NC2CC(n3cccn3)C2)c(=O)c2ccc(Br)cc12` (stereo not drawn) [Example 117, 2-(6-bromo-1-oxo-4-propan-2-ylphthalazin-2-yl)-N-(3-pyrazol-1-ylcyclobutyl)acetamide] are under 10 µM and 6.45 µM.
For the compound `CC(C)c1nn(CC(=O)NC23CC(F)(C2)C3)c(=O)c2ccc(Br)cc12` [Example 118, 2-(6-bromo-1-oxo-4-propan-2-ylphthalazin-2-yl)-N-(3-fluoro-1-bicyclo[1.1.1]pentanyl)a cetamide], the IC50 (class column of Table 3) is under 10 µM and 0.737 µM corresponded to half-maximal inhibition (numeric column of Table 3) (IC50).
In the same order, the values of `CC(C)c1nn(CC(=O)Nc2ccc(C#N)cn2)c(=O)c2ccc(Br)cc12` [Example 119, 2-(6-bromo-1-oxo-4-propan-2-ylphthalazin-2-yl)-N-(5-cyanopyridin-2-yl)acetamide] are under 10 µM and 0.163 µM.
The like results for `CC(C)c1nn(CC(=O)Nc2ncc(Cl)cn2)c(=O)c2ccc(Br)cc12` [Example 120, 2-(6-bromo-1-oxo-4-propan-2-ylphthalazin-2-yl)-N-(5-chloropyrimidin-2-yl)acetamide] were, in that order, under 10 µM and 0.025 µM.
For `CC(C)c1nn(CC(=O)Nc2ccnnc2)c(=O)c2ccc(Br)cc12` [Example 121, 2-(6-bromo-1-oxo-4-propan-2-ylphthalazin-2-yl)-N-pyridazin-4-ylacetamide], the IC50 is, setting by setting: (class column of Table 3) under 10 µM; (numeric column of Table 3) 0.423 µM.
The like results for `CC(C)c1nn(CC(=O)Nc2cncc(F)c2)c(=O)c2ccc(Br)cc12` [Example 122, 2-(6-bromo-1-oxo-4-propan-2-ylphthalazin-2-yl)-N-(5-fluoropyridin-3-yl)acetamide] were, in that order, under 10 µM and 1.28 µM.
In the same order, the values of `CC(C)c1nn(CC(=O)Nc2ccnn2C2CCC2)c(=O)c2ccc(Br)cc12` [Example 123, 2-(6-bromo-1-oxo-4-propan-2-ylphthalazin-2-yl)-N-(2-cyclobutylpyrazol-3-yl)acetamide] are under 10 µM and 2.13 µM.
Regarding `Cc1cnc(NC(=O)Cn2nc(C(C)C)c3cc(Br)ccc3c2=O)c(F)c1` [Example 124, 2-(6-bromo-1-oxo-4-propan-2-ylphthalazin-2-yl)-N-(3-fluoro-5-methylpyridin-2-yl)acetamide], the 50% inhibitory concentration (IC50) was under 10 µM (class column of Table 3) and 1.03 µM (numeric column of Table 3).
In the same order, the values of `CC(C)c1nn(CC(=O)NC2CCCOC2)c(=O)c2ccc(Br)cc12` (stereo not drawn) [Example 125, 2-(6-bromo-1-oxo-4-propan-2-ylphthalazin-2-yl)-N-(oxan-3-yl)acetamide] are under 10 µM and 3.06 µM.
The like results for `CC(C)c1nn(CC(=O)NC2CCC2)c(=O)c2ccc(Br)cc12` [Example 126, 2-(6-bromo-1-oxo-4-propan-2-ylphthalazin-2-yl)-N-cyclobutylacetamide] were, in that order, under 10 µM and 1.78 µM.

Broadly, the IC50 is the concentration at which inhibition is half-maximal. Low values mean greater potency in that assay, high ones weaker potency in that assay.
